From BigSolDB 2.1

C=C[C@]1(C)C[C@@H](OC(=O)CSC(C)(C)CNC(=O)[C@H](N)C(C)C)[C@]2(C)[C@H](C)CC[C@]3(CCC(=O)[C@H]32)[C@@H](C)[C@@H]1O.Cl
solubility (mole fraction)
Settings	278.15 K	283.15 K	288.15 K	293.15 K	298.15 K	303.15 K	308.15 K	313.15 K
in ethanol	0.0309	0.038	0.0432	0.0506	0.0601	0.0713	0.0837	0.101
in water	0.00162	0.00321	0.00545	0.00853	0.0135	0.0214	0.0344	0.0486
